Results published in PubChem BioAssay AID2305 (GlaxoSmithKline (GSK), 2010).
Several values for one entry are separate records, joined by “and”; a condition that tells them apart may be missing. Identical values can stand only once.

The compounds below were run on P. falciparum 3D7 growth, pLDH absorbance (assay: P. falciparum 3D7 growth inhibition, dose response, strain 3D7 (AID 2305)).

SMILES | IC50
CC(C)NCc1ccc(-c2cccc(-c3nc4ccccc4[nH]3)c2)cc1 | 0.23 µM
COC(=O)c1cccc(CNCc2ccc(-c3ccc(-c4nc5ccccc5[nH]4)s3)cc2)c1 | 0.29 µM
c1ccc(COc2ccc(COc3ccc(Cn4ccnc4)cc3)cc2)cc1 | 0.95 µM
N#Cc1cccc(Nc2nccc(NCC(O)c3ccccc3C(F)(F)F)n2)c1 (centres undefined) | 0.83 µM
CCCC(C)NC(=O)C(N)Cc1cccc(I)c1 (centres undefined) | 0.98 µM
O=C(/C=C/c1c(Cl)cccc1Cl)NC1CCC(CN2CCC(c3c[nH]c4ccccc34)CC2)CC1 (centres undefined) | 0.37 µM and 0.81 µM
O=C1CC(C(=O)Nc2cccc(-c3cccc(-c4nc5ccccc5[nH]4)c3)c2)c2ccccc2N1 (centres undefined) | 0.98 µM
CC(C)N1CCN(CCCNc2c3ccccc3nc3ccccc23)CC1 | 0.23 µM
CCn1ccc2c(N3CCCC3=O)cc(C(=O)N[C@@H](Cc3ccccc3)[C@H](O)CNCc3cccc(OC)c3)cc21 | 0.59 µM
COc1ccc(C(=O)[C@H]2C[C@@H]2CN2CC=C(c3c(C)[nH]c4ccccc34)CC2)cc1 | 0.3 µM
Cc1cc(N(C)C2CCN(C)CC2)nc(Nc2ccc(Cl)cc2)n1 | 0.29 µM
COc1ccc(CNCCCCCCNCCc2ccc(Cl)cc2)cc1OC | 1.39 µM
COc1ccc(CN(C)CCCCc2ccc(NC(=O)COc3cccc4sc5ccccc5c(=O)c34)cc2)cc1OC | 0.81 µM
OC(COc1ccccc1-c1nc2ccccc2o1)CN1CCCN(CCc2ccccc2)CC1 (centres undefined) | 0.76 µM
CS(=O)(=O)CCNCc1cccc(-c2cc3c(Nc4ccc(OCc5cccc(F)c5)c(Cl)c4)ncnc3s2)c1 | 0.2 µM
c1ccc(Oc2ccc(Nc3ccnc(Nc4ccc(CN5CCOCC5)cc4)n3)cc2)cc1 | 0.94 µM
O=C(/C=C/c1cccc(C(F)(F)F)c1)NCCCCCN1CCC(c2c[nH]c3ccccc23)CC1 | 0.84 µM
COc1cc2c(c(Cl)c1OC)CCN(Cc1ccccc1)CC2c1ccc(NC(=O)C(F)(F)F)cc1 (centres undefined) | 0.92 µM
O=c1nc(C=Cc2ccc(Br)cc2)oc2ccccc12 | 1.05 µM
C[C@@H](N=C(Nc1ccc(-c2ccccc2)cc1)Nc1ccc(C#N)cc1O)c1ccc(Br)cc1 | 0.7 µM
CCC1(c2ccccc2)N=C(N)N(CCCc2ccccc2)C1=O (centres undefined) | 0.89 µM
COC(=O)c1cccc(N2CCN(CCCNC(=O)/C(=C/C=C/c3cc4cc(Cl)c(Cl)cc4[nH]3)OC)CC2)c1 | 0.67 µM
CC[C@H]1CN2CC[C@@H]1C[C@H]2[C@H](O)c1cc(N2CCOCC2)nc2ccc(OC)cc12 | 0.12 µM
CCCCn1c(SC(C)C)nc2c(c1=O)C1(CCCCC1)Cc1ccccc1-2 | 0.67 µM
COc1ccc2nccc([C@@H](O)CN3CCC(NC(=O)C(c4cc5ccccc5s4)N4CC(C)OC(C)C4)CC3)c2c1 (some centres undefined) | 0.98 µM

SMILES | IC50
CCCCCCn1c(Sc2ccc(C#N)c([N+](=O)[O-])c2)nnc1-c1cccc(Cl)c1 | 0.61 µM
CCOc1c(CNCCCNc2cc(=O)c3ccccc3[nH]2)cc(Br)cc1OC | 1.16 µM
NCc1cccc(-c2ccc(CNC3CCN(Cc4ccccc4)CC3)cc2)c1 | 1.7 µM
CN(C)CC(O)COc1ccc(Nc2ncc([N+](=O)[O-])c(Nc3ccccc3O)n2)cc1 (centres undefined) | 0.76 µM
CC(=O)N1c2ccccc2C(C)=CC1(C)C | 0.94 µM
CCc1c(CCNCCCCCCNCCc2ccc(Br)cc2)ccc(OC)c1OC | 0.23 µM
C=CCn1c(=N)c(C(=O)NCc2ccc(F)cc2)cc2c(=O)n3cccc(C)c3nc21 | 1.17 µM
COc1cc(F)c2nccc([C@@H](O)CN3CCC(NCc4nc5c(F)cccc5[nH]4)CC3)c2c1 | 0.85 µM
CN1CCCN(Cc2ccc(-c3ccc(NC(=O)c4cccc(Cl)c4)cc3)cc2)CC1 | 0.86 µM
CC(=O)Nc1ccc(OCCN(CC(F)(F)F)c2ccc(C#N)cc2C(F)(F)F)cc1 | 0.77 µM
COC(=O)Cn1c2ccccc2c2c(N)c(C(=O)OC)c(C)nc21 | 0.94 µM
O=C(CCNc1ccnc(NCC2CCCCC2)n1)Nc1ccccc1 | 1.1 µM
C[C@@H](C(N)=O)N1CCCCC1c1ccc(OCc2cccc(F)c2)cc1 (some centres undefined) | 0.99 µM
CC(C)(C)NS(=O)(=O)c1cc(C(=O)N2CCC(CCN3CCC(C(=O)c4ccc(F)cc4)CC3)(c3cccc(F)c3)CC2)c(Cl)cc1F | 0.75 µM
COc1ccc2nccc([C@H](O)CN3CCC(NCc4ccc5c(c4C)OCCO5)CC3)c2n1 | 0.89 µM
CCOc1cc(N)c2nc3ccc([N+](=O)[O-])cc3cc2c1 | 0.15 µM
COCCN(C(=O)Cc1cccs1)C(C(=O)NCc1ccc(OC)cc1)c1ccc(C(C)C)cc1 (centres undefined) | 0.84 µM
CN1CCN(c2ccnc3ccc(NC(=O)Nc4ccc(-c5ccncc5)c(C#N)c4)cc23)CC1 | 0.16 µM
Cc1ccc(O)cc1Nc1ccnc2cc(-c3nccs3)ccc12 | 0.88 µM
Cc1cc(Nc2ccc(OCc3ccccc3Cl)cc2)c2cc(Cl)ccc2n1 | 0.43 µM
CC(C)(C)CCOC(=O)N1CCc2c(cc(O)c(O)c2Cl)C(c2ccc(O)cc2)C1 (centres undefined) | 0.75 µM
C[C@H](Nc1c(Nc2ccc3[nH]ccc3c2)c(=O)c1=O)C1CCCCC1 | 0.21 µM
CCC1(CC)C(=O)N=C(N2CCCCC2)N(C)C1=O | 0.3 µM
CN(C)CCN(C)C(=O)c1cc(-c2ccncc2)c(-c2ccc(Cl)c(O)c2)o1 | 1.05 µM
CCC[C@@H]([C@@H](CC1CCCCC1)C(=O)N[C@H](C(=O)Nc1nccs1)C(C)(C)SCCNC(=O)OCC)N(O)C=O | 0.08 µM

SMILES | IC50
COc1cccc2cc(C(=O)N[C@@H](CC(C)C)C(=O)N[C@H](/C=N/N3CC(=O)NC3=O)CC(C)C)oc12 | 0.92 µM
Cc1ccc2c(c1[N+](=O)[O-])N=NCC2Oc1ccccc1 (centres undefined) | 0.87 µM
Cc1ccc(CNC(=O)[C@H](Cc2ccccc2)Nc2cc(C)nc(Nc3ccccc3)n2)cc1 | 0.85 µM
CN(C)CCOc1cc(NC(=O)Nc2ccc(-c3ccccc3)cc2Cl)ccc1I | 0.25 µM
Cc1cccc2[nH]c(-c3ccc(-c4ccc(CN5CCC(N)C5)cc4)s3)nc12 (centres undefined) | 0.37 µM
COc1ccc2[nH]c3ccccc3c(=O)c2c1 | 1 µM
Clc1cc(Cl)c2cc(CNCCCNc3ccc4ccccc4n3)[nH]c2c1 | 0.34 µM
CN1CCN(CC(=O)Nc2cccc(-c3ccc(-c4nc5ccc(F)cc5[nH]4)cc3)c2)CC1 | 0.7 µM
COc1cc2ncnc(Nc3ccc(OCc4ccccc4)c(I)c3)c2cc1OC | 0.71 µM
CCC1CN2CCc3c([nH]c4ccccc34)[C@@H]2C[C@@H]1CC1NCCc2cc(OC)c(OC)cc21 (some centres undefined) | 0.86 µM and 0.84 µM
O=C(Nc1ccccc1)c1nn(CCCN2CCC(N3CCCC3)CC2)cc1-c1ccc(Cl)c(Cl)c1 | 0.24 µM
O=C(/C=C/c1ccc(C(F)(F)F)cc1)N1CCc2cc3nccc(N4CCN5CCC[C@H]5C4)c3cc21 | 1.51 µM
COc1cc(C(C)C)ccc1C1CCN(CCCCNC(=O)c2ccc(NC(=O)c3ccc(Cl)cc3)cc2)CC1 | 0.45 µM
N#Cc1ccc2c(c1)CCN(CCC1CCC(NC(=O)c3cc4ccccc4[nH]3)CC1)CC2 (centres undefined) | 1.01 µM
CN1CCCC(CN2CCN(Cc3ccc(-c4ccc(-c5nc6ccccc6[nH]5)s4)cc3)CC2)C1 (centres undefined) | 0.13 µM
CN(C)C(=O)CC(=O)NCc1c(Cl)cccc1Cl | 0.2 µM
Cc1cccc2[nH]c(-c3cccc(-c4ccc(CNCCNC(=O)c5ccnn5C)cc4)c3)nc12 | 0.17 µM
COC(=O)c1cc(C(=O)CN(Cc2ccccc2)C(C)C)ccc1O | 0.18 µM
O=c1cc(NCCCNC2CCOc3c(Cl)cccc32)[nH]c2ccccc12 (centres undefined) | 0.83 µM
CCC(C)(C)c1ccc(N2C(N)=NC(N)=NC2(C)C)cc1 | 0.01 µM
CN(C)CCCOc1cccc(NC(=O)Nc2ccc(-c3ccccc3)cc2)c1 | 0.87 µM
O=C(Nc1ccc(Cl)cc1)N[C@H]1CCN(CCCCCNC(=O)[C@@H]2C[C@H]2c2ccc(Cl)c(Cl)c2)C1 | 0.87 µM
c1ccc(OCCCCN2CCCCC2)cc1 | 0.54 µM
CN1CCN(CC(=O)Nc2cccc(-c3cccc(-c4nc5ccc(C(F)(F)F)cc5[nH]4)c3)c2)CC1 | 0.37 µM
CC(C)(CNC(=O)C1CCN(CCOc2ccc(Cl)cc2)CC1)c1nc(-c2ccc(Cl)c(O)c2)c(-c2ccncc2)[nH]1 | 0.71 µM

SMILES | IC50
COc1cccc(NC(=O)COc2ccc(C(=O)Nc3nc4ccccc4[nH]3)cc2)c1 | 0.97 µM
C=CCOc1ccc(-c2c(C)[nH]c(C)c(Br)c2=O)cc1 | 0.28 µM
Cc1cc(N(C)C)nc(Nc2ccc(NS(=O)(=O)c3ccccc3)cc2)n1 | 1.35 µM
CC(CC(=O)NCC1(c2ccc(F)cc2Cl)CCOCC1)C(=O)c1ccc(Cl)cc1 (centres undefined) | 0.86 µM
CCCc1c(C(=O)Nc2ccc3c(c2)CCN(C2CCC2)CC3)cnn1-c1ccc(Cl)cc1 | 0.86 µM
O=C(NCCN1CCCC1)N1CCCN(c2ncnc3cc(-c4ccc(F)cc4)sc23)CC1 | 0.9 µM
COc1cccc(C(=O)Nc2ccc(Nc3nc(C)cc(N(C)C)n3)cc2)c1 | 0.94 µM
O=c1cc(NCCCNCc2ccc(Cl)c(Cl)c2)[nH]c2ccc(C(F)(F)F)cc12 | 0.52 µM
COc1ccccc1C1CC(c2ccccc2)=NN1C(=O)c1ccccc1 (centres undefined) | 0.3 µM
Cc1cccc2[nH]c(-c3ccc(-c4ccc(CNCCNC(=O)c5ccnn5C)cc4)s3)nc12 | 0.31 µM
CNC(=O)C1Cc2c([nH]c3cc(Cl)ccc23)C2(CCN(CCc3ccccc3)CC2)N1 (centres undefined) | 0.93 µM
COc1cccc(CNC(=O)[C@H]2CNCCN2C(=O)CCCc2ccccc2)c1 | 0.79 µM
NC1=NC(Cc2ccccc2)N(c2ccc(Cl)cc2)C(N)=N1 (centres undefined) | 0.14 µM
c1ccc2cc3c(NCCN4CCOCC4)ccnc3cc2c1 | 0.17 µM
CCCc1c(C(=O)NC2CCC(CN3CCC(c4c[nH]c5ccccc45)CC3)CC2)cnn1-c1ccccc1 (centres undefined) | 1.79 µM
Cc1[nH]n(-c2cccc(C(F)(F)F)c2)c(=O)c1-c1ccc(Cl)cc1 | 0.86 µM
O=C(NC1CCN(CCN2CCC(c3cn(CCO)c4ccccc34)CC2)CC1)c1ccc(-c2ccc(C(F)(F)F)cc2)cc1 | 0.74 µM
COc1ccc(CNCc2ccc(-c3cccc(-c4nc5c(C)cccc5[nH]4)c3)cc2)cc1 | 0.13 µM
COc1ccc2nccc([C@@H](O)CN3CCC(NC(=O)/C=C/c4cccc(NC(C)=O)c4)CC3)c2c1 | 0.96 µM
O=S(=O)(Nc1cccc(CCN2CCCCC2CCN2CCCC2)c1)c1ccc(-c2ccccc2)cc1 (centres undefined) | 1.09 µM
COc1ccc2c(c1CCNCCCCNCCc1c(OC)ccc3c1CCCC3)CCCC2 | 0.38 µM
CCn1c(-c2nonc2N)nc2c(-c3cccc(NC(=O)Nc4cccc(C#N)c4)c3)ncc(OCCCN)c21 | 0.67 µM
Cc1cc(N2CC=CCC2)nc(/N=C(\N)Nc2ccc(Br)cc2)n1 | 0.69 µM
CC(C)(C)c1ccc(CN(C[C@@H](O)CNS(=O)(=O)c2cc(Cl)cc(Cl)c2)C(C)(C)C)cc1 | 0.93 µM
